Consider one molecule from ChEMBL document CHEMBL1132596, “Non-peptide corticotropin-releasing hormone antagonists: syntheses and structure-activity relationships of 2-anilinopyrimidines and -triazines” (J Med Chem, 1999).

A short description of data set [1]: The Tmax is the time taken to reach maximum concentration was measured in rat at dose 30 mg/kg after intraperitoneal administration. Type of data set: ADME, organism-based. Also noted: dose 30 mg/kg, route intraperitoneal. The following applies: in vivo, ip.
The nature of data set [2]: The maximum concentration of the compound was measured in rat at dose 30 mg/kg after intraperitoneal administration. Type of data set: ADME, organism-based. Further details: dose 30 mg/kg, route intraperitoneal. The settings on record: in vivo, ip.
Data set [3] can be described thus: The clearance was measured in dog at dose 5 mg/kg after intravenous administration. Type of data set: ADME, organism-based, Canis lupus familiaris. Further details: dose 5 mg/kg, route intravenous. The settings on record: in vivo.
Data set [4] in a line: Bioavailability in rat (dose 30 mg/kg i.p.). Type of data set: ADME, organism-based. The settings on record: in vivo, ip.
Data set [5] in a line: The half life period was measured in rat at dose 12 mg/kg after intravenous administration. Type of data set: ADME, organism-based. Also noted: dose 12 mg/kg, route intravenous. The settings on record: in vivo.
The nature of data set [6]: The maximum concentration of the compound was measured in rat at dose 30 mg/kg after peroral administration. The format is ADME, organism-based. The following applies: in vivo, po. Further details: dose 30 mg/kg, route oral.
Data set [7] can be described thus: The Tmax is the time taken to reach maximum concentration was measured in dog at dose 5 mg/kg after peroral administration. The format is ADME, organism-based, Canis lupus familiaris. Further details: dose 5 mg/kg, route oral. The settings on record: in vivo, po.
Data set [8] in a line: The clearance was measured in rat at dose 1 mg/kg after intravenous administration. Also noted: dose 1 mg/kg, route intravenous. Type of data set: ADME, organism-based. The settings on record: in vivo.
Data set [9] is described as follows: The half life period was measured in rat at dose 1 mg/kg after intravenous administration. Type of data set: ADME, organism-based. Also noted: dose 1 mg/kg, route intravenous. The settings on record: in vivo.
The nature of data set [10]: The maximum concentration of the compound was measured in rat at dose 1 mg/kg after peroral administration. The format is ADME, organism-based. Further details: dose 1 mg/kg, route oral. The settings on record: in vivo, po.
In data set [11] the target is T1, Corticotropin-releasing factor receptor 1 (Homo sapiens, UniProt P34998).
T1 sequence (P34998 whole entry): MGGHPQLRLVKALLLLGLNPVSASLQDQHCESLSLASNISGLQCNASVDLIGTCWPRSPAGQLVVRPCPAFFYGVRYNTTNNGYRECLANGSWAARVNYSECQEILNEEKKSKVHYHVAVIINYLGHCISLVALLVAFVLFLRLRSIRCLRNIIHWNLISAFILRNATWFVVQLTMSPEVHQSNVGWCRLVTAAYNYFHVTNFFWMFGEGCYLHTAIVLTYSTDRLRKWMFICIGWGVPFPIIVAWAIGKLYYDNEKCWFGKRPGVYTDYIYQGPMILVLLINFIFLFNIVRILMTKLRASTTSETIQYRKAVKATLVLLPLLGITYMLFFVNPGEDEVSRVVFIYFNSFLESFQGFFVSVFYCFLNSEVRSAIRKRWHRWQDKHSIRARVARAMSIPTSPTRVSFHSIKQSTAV
The data set is described as follows: Binding affinity for human recombinant corticotropin releasing factor receptor 1.

Data set [12] in a line: The bioavailability measured as F(%) in dog at dose 5 mg/kg after peroral administration. Type of data set: ADME, organism-based, Canis lupus familiaris. The following applies: in vivo, po.
Data set [13] can be described thus: The Tmax is the time taken to reach maximum concentration was measured in rat at dose 1 mg/kg after peroral administration. Further details: dose 1 mg/kg, route oral. The settings on record: in vivo, po. Type of data set: ADME, organism-based.
The nature of data set [14]: The half life period was measured in dog at dose 5 mg/kg after intravenous administration. Type of data set: ADME, organism-based, Canis lupus familiaris. Also noted: dose 5 mg/kg, route intravenous. The settings on record: in vivo.
The nature of data set [15]: The Tmax is the time taken to reach maximum concentration was measured in rat at dose 30 mg/kg after peroral administration. The format is ADME, organism-based. Further details: dose 30 mg/kg, route oral. The settings on record: in vivo, po.
The nature of data set [16]: The clearance was measured in rat at dose 12 mg/kg after intravenous administration. The format is ADME, organism-based. Also noted: dose 12 mg/kg, route intravenous. The following applies: in vivo.
Data set [17] can be described thus: The maximum concentration of the compound was measured in dog at dose 5 mg/kg after peroral administration. The format is ADME, organism-based, Canis lupus familiaris. Further details: dose 5 mg/kg, route oral. The settings on record: in vivo, po.

Turning to `CCN(c1nc(C)nc(N2CCOCC2)n1)c1c(Br)cc(OC)cc1OC`, the Tmax in data set [1] was found to be 0.3 h; in [7], 0.5 h; in [13], 0.3 h; in data set [15], 1.6 h. The Cmax came out at 2700 nM in data set [2], 753 nM in data set [6], 21 nM in data set [10] and 730 nM in data set [17]. The figures for the clearance in data set [3], in data set [8] and in data set [16] were 21.7 mL/min/kg, 66.7 mL/min/kg and 48.3 mL/min/kg, respectively. For the same molecule, the figures for the bioavailability in data set [4] and in data set [12] were 47% and 20%, respectively. The half-life in data set [5] is 15.6 h; in data set [9], 7.6 h; in data set [14] it was 6 h. For the same molecule, in data set [11], the Ki was determined as 32 nM.

As usually defined, the Tmax is the time at which the peak concentration occurs. The term Cmax denotes the peak of the concentration-time curve. What is called clearance is the volume of plasma or blood freed of the substance per unit of time. High values mean efficient removal, low ones inefficient removal. One may read the bioavailability as the share of a dose that reaches the circulation, judged against a reference dose that is usually intravenous. A higher bioavailability goes with much systemic uptake. Broadly, the half-life is how long it takes for the measured level to halve. A high value points to slow decline. What is called Ki is the dissociation constant of the complex between target and ligand, obtained from inhibition or displacement.
